Source: patent US3998795A, “(Acyl-D-α-amino acid-gly-gly-tyr-ala)^1 -somatostatin” (American Home Products Corporation, priority 1975, dated 1976)

Test system: growth hormone
Assay: In vivo growth hormone release inhibition in Nembutal-treated rats, plasma growth hormone by radioimmunoassay
Details: rats 200-250 g, Nembutal 50 mg/kg i.p.; after 5 min octadecapeptide 1000 micrograms/kg s.c.; blood sampled 15 min after administration; control 236 ± 30; p<0.01
Method: The in vivo activity of the octadecapeptides of this invention was established with (CH3 CO-D-Ala-Gly-Gly-L-Tyr-L-Ala)^1 -Somatostatin as a representative member of the octadecapeptides of this invention by injecting Nembutal intraperitoneally into rats weighing between 200 and 250 grams in an amount of 50 milligrams per kilogram body weight. After five minutes, the octadecapeptide was administered to the rats, subcutaneously, at a dose of 1000 micrograms per kilogram body weight. The rats blood was sampled 15 minutes after administration of the octadecapeptide and the amount of growth hormone present in the plasma was determined by radioimmunoassay. The octadecapeptide afforded a blood plasma concentration of growth hormone in the test animals of 74 ± 16 nanograms per milliliter as opposed to the concentration of growth hormone in the control animals of 236 ± 30 nanograms per milliliter, at a statistical certainty of p<0.01.

With `CC(=O)N[C@H](C)C(=O)NCC(=O)NCC(=O)N[C@@H](Cc1ccc(O)cc1)C(=O)N[C@@H](C)C(=O)NCC(=O)N[C@H]1CSSC[C@@H](C(=O)O)NC(=O)[C@H](CO)NC(=O)[C@H]([C@@H](C)O)NC(=O)[C@H](Cc2ccccc2)NC(=O)[C@H]([C@@H](C)O)NC(=O)[C@H](CCCCN)NC(=O)[C@H](Cc2c[nH]c3ccccc23)NC(=O)[C@H](Cc2ccccc2)NC(=O)[C@H](Cc2ccccc2)NC(=O)[C@H](CC(N)=O)NC(=O)[C@H](CCCCN)NC1=O` [N-α-Acetyl-D-alanyl-glycyl-glycyl-L-tyrosyl-L-alanyl-glycyl-L-cysteinyl-L-lysyl-L-asparaginyl-L-phenylalanyl-L-phenylalanyl-L-tryptophyl-L-lysyl-L-threonyl-L-phenylalanyl-L-threonyl-L-seryl-L-cysteine (7-18 disulfide) diacetate] as the compound, how does the “blood plasma concentration of growth hormone” value read?
The value was 74 ± 16 nanograms per milliliter.
